# Data reported in patent US6136552A, “High-affinity salicylic acid-binding protein and methods of use” (Rutgers, The State University of New Jersey, priority 1997, dated 2000).
# Where two headings read alike, the source gives them in different places.
# Key:
# SABP2 [1] = biological target: T1, SABP2 (Nicotiana tabacum, UniProt Q6RYA0); assay: [3H]SA competition assay with unlabeled SA and SA analogues; assay type: binding, tobacco
# T1 construct: Soluble proteins were extracted from the powdered leaves; from tissue; host or cells: tobacco leaf (cv. Xanthi nc), 50-75% ammonium sulfate fraction
# T1 sequence (Q6RYA0 1-260): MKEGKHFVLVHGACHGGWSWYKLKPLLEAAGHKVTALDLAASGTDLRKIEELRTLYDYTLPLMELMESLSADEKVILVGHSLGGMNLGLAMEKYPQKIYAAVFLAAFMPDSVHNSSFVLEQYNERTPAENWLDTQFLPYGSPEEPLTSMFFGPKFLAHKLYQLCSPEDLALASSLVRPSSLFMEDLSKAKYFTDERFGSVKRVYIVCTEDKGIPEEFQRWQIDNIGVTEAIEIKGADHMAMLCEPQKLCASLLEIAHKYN
# Procedure: (§1) [3H]SA binding and competition assays. […] Spin columns were prepared by packing Sephadex G25 gel (exclusion limit 5 kDa; Pharmacia), which was pre-equilibrated in buffer A, in a 1-mL disposable syringe and centrifuging at 1,000 g for 4 minutes at 4° C. This process was repeated until the bed volume of the spin column reached 1 mL. One additional spin with 125 μL buffer A was performed under the same centrifugation conditions. The binding mixture (125 μL) was loaded onto the spin column and immediately centrifuged. […] When no protein extract was included in the binding mixture, the background radioactivity level was 33±3 dpm/100 μL. For the boiling treatment, the extract was boiled for 5 minutes and denatured protein aggregates were removed by centrifugation at 12,000 g for 1 minute.
# [2] = tested on: PR gene expression and enhanced disease resistance; design: key to Biological activity: +, active; -, inactive; conditions: cited from earlier work; for Biological activity: based on FIG. 7 and literature
# PR-1 gene expression = assay: Induction of PR-1 gene expression in leaf discs (northern blot); assay type: cell-based, tobacco; conditions: Nicotiana tabacum, foliar, 24 hours after treatment, read-out: concentration giving 15-fold induction of PR-1 gene expression
# Source text: As a control, rRNA present in each lane is also shown. FIG. 7B is a graph showing quantification of the fold-induction of the PR-1 mRNA levels after SA (.cndot.) and BTH (.smallcircle.) treatment. The levels of PR-1 mRNA were normalized to the amounts of rRNA. The rRNA-normalized levels of PR-1 mRNA obtained after infiltration of leaf discs with SA or BTH were divided by the rRNA-normalized level of PR-1 mRNA obtained after infiltration with water only to determine the fold induction. The data presented are from a single experiment; two additional experiments were done. The maximum-fold induction of the PR-1 genes and the concentrations of SA and BTH required to reach approximately 50% of this value varied somewhat among the three experiments, depending on the age of the plant. In the three experiments, the concentrations of BTH needed to reach approximately 50% induction were 30- to 40-fold lower than those for SA.
# tobacco catalase [3] = biological target: T2, tobacco catalase (Nicotiana tabacum, UniProt P49319); assay: Inhibition of catalase activity; assay type: biochemical; conditions: unpublished data
# T2 construct: tobacco catalase activity in suspension cells and in crude leaf extracts; host or cells: tobacco suspension cells, crude leaf extracts, purified enzyme
# T2 sequence (P49319 1-492): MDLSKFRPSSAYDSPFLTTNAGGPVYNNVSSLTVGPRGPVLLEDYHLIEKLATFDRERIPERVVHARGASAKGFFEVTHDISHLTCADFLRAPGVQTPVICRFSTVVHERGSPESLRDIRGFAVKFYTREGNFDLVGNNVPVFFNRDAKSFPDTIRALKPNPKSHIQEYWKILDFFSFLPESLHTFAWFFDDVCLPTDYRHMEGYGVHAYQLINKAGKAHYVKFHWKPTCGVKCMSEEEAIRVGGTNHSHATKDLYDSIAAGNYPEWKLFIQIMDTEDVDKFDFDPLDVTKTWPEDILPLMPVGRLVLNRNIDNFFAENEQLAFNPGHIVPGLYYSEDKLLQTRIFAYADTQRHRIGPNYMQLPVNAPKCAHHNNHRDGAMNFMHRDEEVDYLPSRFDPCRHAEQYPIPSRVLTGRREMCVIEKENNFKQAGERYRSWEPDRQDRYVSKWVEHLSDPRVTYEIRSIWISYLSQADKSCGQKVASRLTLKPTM
# tobacco catalase [4] = biological target: T2, tobacco catalase; conditions: cited from earlier work
# tobacco catalase [5] = conditions: in vivo; cited from earlier work
# SABP2 [6] = biological target: T1, SABP2; assay: [3H]SA binding assay (kinetics, reversibility, saturation, Scatchard plot); design: species or system tobacco; conditions: for time until binding is complete / approaches equilibrium: 0-4° C.
# Procedure: as §1
# catalase = biological target: T3, catalase (Nicotiana tabacum, UniProt P49319); conditions: cited from earlier work
# T3 construct: has been identified in tobacco leaf extracts; host or cells: tobacco leaf extracts
# T3 sequence (P49319 1-492): T2 sequence (P49319 1-492)
# APX = conditions: cited from earlier work
# [7] = 50-75% fraction, 0.1 μM [3H]SA, on ice 2 hours, estimated from FIG. 6, read-out: IC50 of competition for [3H]SA binding
Structure (SMILES),IC50 (SABP2 [1]; [7]),Biological activity [2],Biologically active / inactive (FIG. 6 legend) ([2]; in vivo),IC50 (SABP2 [1]),further results
"O=C(O)c1cc(O)ccc1O [2,5-dihydroxybenzoic acid]",20 µM,-,biologically inactive,,
"O=C(O)c1c(O)cccc1O [2,6-dihydroxybenzoic acid]",2 µM,+,Biologically active,,
O=C(O)c1cccc(O)c1 [3-hydroxybenzoic acid],105 µM,-,biologically inactive,,
O=C(O)c1ccc(O)cc1 [4-hydroxybenzoic acid],> 1000 µM,-,biologically inactive,,
"O=C(O)c1cc(Cl)ccc1O [5-chloroSA, 5-chlorosalicylic acid]",0.3 µM,+,Biologically active,,
"CSC(=O)c1cccc2nnsc12 [BTH, benzo(1,2,3)thiadiazole-7-carbothioic acid S-methyl ester]",,+,Biologically active,0.1 µM,EC (15-fold) (PR-1 gene expression): ~3.3 µM; catalase inhibition compared with SA (tobacco catalase [3]): more effective inhibitor of catalase than SA
"O=C(O)c1cc(Cl)nc(Cl)c1 [INA, 2,6-dichloroisonicotinic acid]",,+,Biologically active,70 µM,inhibition of catalase activity in crude extracts (tobacco catalase [4]; crude extracts): less effective at inhibiting catalase activity in crude extracts; inhibition of purified tobacco catalase (tobacco catalase [4]; purified enzyme): fails to inhibit purified tobacco catalase; inhibition of tobacco catalase in vivo (tobacco catalase [5]): effectively blocks tobacco catalase in vivo
O=C(O)c1ccccc1O[C@@H]1O[C@H](CO)[C@@H](O)[C@H](O)[C@H]1O [SA β-glucoside],,,,,induction of disease resistance ([2]; in vivo): not active
"O=C(O)c1ccccc1O [SA, salicylic acid]",,+,Biologically active,1.5 µM,"time until binding is complete / approaches equilibrium (SABP2 [6]): 15 to 20 min; inhibition at 1000 µM (SABP2 [6]; 50-75% fraction, 1 mM SA, 0.1 μM [3H]SA, read-out: reduction of binding activity in the presence of excess unlabeled SA): 85%; remaining activity at 1000 µM (SABP2 [6]; 100% = binding after 160 minutes of incubation, read-out: [3H]SA binding remaining after addition of 1 mM SA): < 10%; Kd (SABP2 [6]; Scatchard plot, 50-75% fraction): 0.09 µM; Kd (catalase; [14C]SA, tobacco leaf extracts, read-out: Kd of SA binding to catalase): 14 µM; time until binding to catalase approaches equilibrium (catalase): 90 to 120 min; SA level required for effective inhibition of catalase activity (tobacco catalase [4]): 50 to 300 µM; SA level required for effective inhibition of APX activity (APX): 50 to 300 µM"
O=C(O)c1ccccc1O [[^3 H]SA],,,,,time until binding is complete / approaches equilibrium (SABP2 [6]): approximately 20 minutes; half association time (SABP2 [6]; 50-75% fraction): 5 min
